Assay results as given in patent US5188642A, “Glyphosate-resistant plants” (priority 1990, dated 1993).

Legend:
tobacco leaf fragments = assay: Tobacco leaf callus assay on glyphosate; type: cell-based, tobacco (Samsun variety); details: 0.5 mM glyphosate, 10 days
Procedure: Transformed tobacco plants (Samsun variety) were produced and grown by the method described in Example 4, substituting transformed tobacco leaf disks for transformed petunia leaf disks.
Tobacco plants were tested for glyphosate resistance using the method described for tomato plants in Example 5. Tobacco leaf fragments from plants containing vector alone (pMON200) or the pMON546 chimeric EPSPS gene were incubated on callus medium containing 0.5 mM glyphosate.

E. coli 11303 SM-1 = assay: Growth of E. coli culture in glyphosate-containing growth medium; type: cell-based; details: mutant E. coli 11303 SM-1, glyphosate 10 mM or higher in growth medium
Procedure: Cells of E. coli ATCC 11303 were transferred to medium A and incubated at 37° C.
This mutant bacterium was designated E. coli 11303 SM-1. The aroA gene encoding EPSPS from this mutant bacterium was isolated as follows.

[1] = system: leaf tissue from transgenic shoots of B. napus; assay: Oil seed rape leaf tissue tolerance test on medium with glyphosate; type: cell-based, Brassica napus; details: 0.5 mM glyphosate
Procedure: The four terminal intervals from B. napus plants (growth chamber grown in soil) are surface sterilized in sodium hypochlorite and cut into 5 mm sections. The upper surface of each piece is inoculated with an overnight liquid culture of A. tumefaciens containing the above described transformation vector and helper plasmid pTiT37-SE and incubated for 2 to 3 days on nurse culture plates containing 1/10 MS medium with 1 mg/l BA. The explants are then transferred to MS medium containing 1 mg/l BA, 500 mg/l carbenicillin and 100 mg/l kanamycin. After 3 to 6 weeks, leaf tissue from transgenic shoots that have developed is transferred to the same medium but with 0.5 mM glyphosate instead of the kanamycin to test for tolerance.
Control tissue is prepared using A. tumefaciens cells containing helper plasmid pTiT37-SE and vector pMON200.

petunia plants = assay: Plant response to glyphosate spraying (petunia plants, track sprayer); type: in vivo; details: isopropylamine salt with ionic surfactant
Procedure: Four individual representative transgenic seedlings were selected, grown and tested in the testing procedure described below, along with four individual non-transformed (wild-type) petunia seedlings.
The plants were grown in a growth medium in a growth chamber at 26° C. with 12 hours of light per day. The plants were fertilized weekly with a soluble fertilizer and watered as needed. The plants were sprayed at a uniform and reproducible delivery rate herbicide by use of an automated track sprayer.
The glyphosate solution used was measured as pounds of glyphosate acid equivalents per acre, mixed as the glyphosate isopropylamine salt, with an ionic surfactant.
Four individual wild-type (non-transformed) petunia plants were selected for use as control plants. Four individual transformed plants containing the pMON546 vector were selected by kanamycin resistance as described in Horsch et al 1985.
The control plants and the transformed plants were sprayed with the isopropylamine salt of glyphosate at the application level listed in Table 2 below; the experimental results obtained are also summarized in Table 2.

transgenic canola lines = assay: Glyphosate spray test, reproductive scores of transgenic canola (Example 20); type: in vivo, Brassica napus; details: 0.28 Kg/ha, 28 days after spraying; lines with A. thaliana meristematic promoter (pMON992) versus enhanced CaMV35S promoter only (pMON987); FIG. 11
Procedure: The transgenic, differentiated plants obtained containing the variant EPSP synthase gene as described above were analyzed for resistance to glyphosate. The transgenic plants containing the Arabidopsis EPSP synthase gene (as described) directed by the Arabidopsis thaliana promoter as also described above contained pMON992 while those plants containing the Arabidopsis EPSP synthase gene driven only by the enhanced CaMV35S promoter contained pMON987. These transgenic plants were planted and the seed from the R° plants harvested, threshed and dried before planting for a glyphosate spray test. The progeny were planted in 4-inch square pots of Metro 350 and three types of slow release fertilizers. A goal of twenty seedlings from each R° plant is desirable for testing. Germination frequency is usually high but overplanting ensures that twenty seedlings are present. The plants were thinned down by selecting the twenty most vigorous and erect seedlings seven to ten days after planting. A negative control (non-transformed, "Westar" variety) was planted at the same time to maintain quality and display the results. The plants were maintained and grown in a greenhouse environment. A sixteen-hour photoperiod and a temperature of 21° C. (day) and 15° C. (night) was maintained. Water soluble Peters Pete Lite fertilizer with an analysis of 20-19-18 was applied once per week or as needed. […]

cotton tumor tissue = assay: Cotton tumor tissue growth on medium containing glyphosate; type: cell-based; details: 0.5 mM glyphosate
Procedure: A plant transformation vector similar to pMON546 is prepared following the general procedure outlined in Example 1 except that the CTP/EPSPS coding sequence is obtained from cotton. Seeds of cotton (cultivator Delta Pine 50) are surface sterilized using sodium hypochlorite and germinated in vitro on a basal medium in the dark. After 2 weeks hypocotyls and cotyledons are cut into pieces and innoculated with a tumorous strain of A. tumefaciens containing the above described transformation vector and helper plasmid pGV3111. After 3 days coculture on MS basal medium, the explants are transferred to the same medium with 500 mg/l carbenicillin to kill the bacteria. After 2 to 4 weeks, tumor tissue is transferred to the same medium containing 0.5 mM glyphosate.
Control tissue was produced using tumorous A. tumefaciens cells containing the helper plasmid pGV3111 and pMON200.

tobacco leaf disks = assay: Callus growth from tobacco leaf disks on glyphosate; type: cell-based, N. tabacum; details: for callus tissue formation: 0.5 mM glyphosate
Description: Leaf disks were excised from tobacco plants (N. tabacum) and treated as described above with A. tumefaciens cells containing pMON546 (or pMON505, for control cells) and helper plasmid pGV3111-SE.

Compound: O=C(O)CNCP(=O)(O)O [glyphosate, N-phosphonomethylglycine]
- callus growth from leaves (tobacco leaf fragments; control tobacco leaves (pMON200 vector alone)): completely inhibited and showed no signs of callus growth
- glyphosate resistance of leaves (tobacco leaf fragments; leaves from plants transformed with chimeric petunia EPSPS gene (pMON546)): confers glyphosate resistance to tobacco plants
- growth of culture (E. coli 11303 SM-1): could grow rapidly
- tissue growth ([1]; transformed (pMON200) and non-transformed controls): are inhibited
- tissue growth ([1]; transgenic tissue that expresses EPSPS): are able to grow in the presence of glyphosate
- Visual Appearance (petunia plants; Chimeric EPSPS transformants (pMON546), 0.8 #/acre acid equivalent): healthy and viable
- Visual Appearance (petunia plants; Control (wild-type) petunia plants, 0.4 #/acre acid equivalent): killed
- reproductive scores (scale 0-10) (transgenic canola lines): higher reproductive scores
- tissue growth (cotton tumor tissue; pMON200 transformed tissue (control) and non-transformed tissue): is inhibited
- tissue growth (cotton tumor tissue; tissue transformed with cotton CTP/EPSPS vector): demonstrates glyphosate resistance by continuing growth
- callus tissue formation (tobacco leaf disks; cells transformed with CaMV/EPSPS gene (pMON546)): created substantial amounts of callus tissue
- callus tissue formation (tobacco leaf disks; control cells without the gene (pMON505)): did not create any detectable callus tissue
- glyphosate resistance of transformed tobacco cells (tobacco leaf disks; pMON542, E. coli mutant EPSPS construct with CTP): resulted in glyphosate resistance
- glyphosate resistance of transformed tobacco cells (tobacco leaf disks; pMON8078, E. coli mutant EPSPS construct without CTP): failed to confer glyphosate resistance
